Tests used:
Assay type in all cases: biochemical
p38a MAPK = p38a MAPK (Homo sapiens, UniProt Q16539); experiment: Kinase profiling (radioactive filter binding); details: 1 uM compound
Protocol: (§1) 3A5 and 5E4 were sent to the International Centre for Kinase Profiling at the MRC Protein Phosphorylation and Ubiquitylation Unit for profiling (as described in ref ([17])). Compounds were profiled against 140 kinases using a radioactive ([^33P]ATP) filter binding assay at a concentration of 1 μM. Results were obtained as inhibition of kinase activity and are listed in Supplementary Table 2.

MPSK1 = MPSK1 (Homo sapiens, UniProt O75716); experiment: Kinase profiling (radioactive filter binding); details: 1 uM compound
Protocol: as §1

HIPK3 = HIPK3 (Homo sapiens, UniProt Q9H422); experiment: Kinase profiling (radioactive filter binding); details: 1 uM compound
Protocol: as §1

PRAK = PRAK (Homo sapiens, UniProt Q8IW41); experiment: Kinase profiling (radioactive filter binding); details: 1 uM compound
Sequence of PRAK (Q8IW41 whole entry): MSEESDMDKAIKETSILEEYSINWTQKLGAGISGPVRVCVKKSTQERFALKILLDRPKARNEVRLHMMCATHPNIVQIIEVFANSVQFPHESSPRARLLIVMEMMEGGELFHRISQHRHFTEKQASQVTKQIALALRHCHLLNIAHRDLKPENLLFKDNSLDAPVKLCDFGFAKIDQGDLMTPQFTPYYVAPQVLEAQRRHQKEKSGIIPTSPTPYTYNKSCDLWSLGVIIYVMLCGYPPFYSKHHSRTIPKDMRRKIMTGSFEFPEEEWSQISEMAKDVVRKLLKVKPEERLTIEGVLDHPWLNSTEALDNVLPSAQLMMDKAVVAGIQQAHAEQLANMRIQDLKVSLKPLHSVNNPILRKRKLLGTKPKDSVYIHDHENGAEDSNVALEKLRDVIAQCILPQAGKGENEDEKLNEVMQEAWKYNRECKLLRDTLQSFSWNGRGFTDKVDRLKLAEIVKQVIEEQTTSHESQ
Protocol: as §1

IR = IR (Homo sapiens, UniProt P06213); experiment: Kinase profiling (radioactive filter binding); details: 1 uM compound
Protocol: as §1

MLK1 = MLK1 (Homo sapiens, UniProt P80192); experiment: Kinase profiling (radioactive filter binding); details: 1 uM compound
Protocol: as §1

CK2 = CK2 (Homo sapiens, UniProt P68400); experiment: Kinase profiling (radioactive filter binding); details: 1 uM compound
Protocol: as §1

TTBK1 = TTBK1 (Homo sapiens, UniProt Q5TCY1); experiment: Kinase profiling (radioactive filter binding); details: 1 uM compound
Sequence of TTBK1 (Q5TCY1 whole entry): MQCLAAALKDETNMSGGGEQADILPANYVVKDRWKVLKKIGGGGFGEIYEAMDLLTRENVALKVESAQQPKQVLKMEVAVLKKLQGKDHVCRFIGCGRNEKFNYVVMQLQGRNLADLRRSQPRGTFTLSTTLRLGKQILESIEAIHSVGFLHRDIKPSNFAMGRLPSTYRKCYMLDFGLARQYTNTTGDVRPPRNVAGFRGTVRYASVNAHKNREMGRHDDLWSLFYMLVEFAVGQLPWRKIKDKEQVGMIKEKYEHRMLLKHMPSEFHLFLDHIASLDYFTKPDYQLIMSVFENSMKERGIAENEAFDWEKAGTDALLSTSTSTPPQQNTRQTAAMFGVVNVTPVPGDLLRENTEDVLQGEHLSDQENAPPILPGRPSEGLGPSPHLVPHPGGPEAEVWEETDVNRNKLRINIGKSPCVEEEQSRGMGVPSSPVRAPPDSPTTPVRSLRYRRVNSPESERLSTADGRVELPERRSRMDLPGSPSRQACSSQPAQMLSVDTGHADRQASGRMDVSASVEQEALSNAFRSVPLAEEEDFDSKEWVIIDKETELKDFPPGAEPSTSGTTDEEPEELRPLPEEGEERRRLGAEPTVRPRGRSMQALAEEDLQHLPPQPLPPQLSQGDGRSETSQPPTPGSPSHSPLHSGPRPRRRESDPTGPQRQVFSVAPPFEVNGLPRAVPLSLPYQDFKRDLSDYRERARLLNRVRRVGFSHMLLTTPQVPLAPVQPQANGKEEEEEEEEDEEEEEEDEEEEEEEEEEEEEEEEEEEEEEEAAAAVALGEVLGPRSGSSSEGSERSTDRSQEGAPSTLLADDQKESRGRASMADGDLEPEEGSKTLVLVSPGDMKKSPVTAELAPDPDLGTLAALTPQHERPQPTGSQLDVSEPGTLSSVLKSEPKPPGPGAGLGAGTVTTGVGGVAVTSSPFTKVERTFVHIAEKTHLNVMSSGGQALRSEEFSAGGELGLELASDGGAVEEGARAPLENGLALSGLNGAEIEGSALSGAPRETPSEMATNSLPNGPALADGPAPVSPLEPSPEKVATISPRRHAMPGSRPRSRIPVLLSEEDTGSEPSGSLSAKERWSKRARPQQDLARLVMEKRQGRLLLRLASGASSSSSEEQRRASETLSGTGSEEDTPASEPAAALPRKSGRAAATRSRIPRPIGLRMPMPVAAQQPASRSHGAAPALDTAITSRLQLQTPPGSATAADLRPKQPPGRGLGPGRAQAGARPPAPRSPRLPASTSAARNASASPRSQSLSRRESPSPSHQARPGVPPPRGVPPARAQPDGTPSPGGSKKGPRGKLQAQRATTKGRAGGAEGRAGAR
Protocol: as §1

MLK3 = MLK3 (Homo sapiens, UniProt Q16584); experiment: Kinase profiling (radioactive filter binding); details: 1 uM compound
Protocol: as §1

PKA = PKA (Homo sapiens, UniProt P17612); experiment: Kinase profiling (radioactive filter binding); details: 1 uM compound
Protocol: as §1

RSK2 = RSK2 (Homo sapiens, UniProt P51812); experiment: Kinase profiling (radioactive filter binding); details: 1 uM compound
Sequence of RSK2 (P51812 whole entry): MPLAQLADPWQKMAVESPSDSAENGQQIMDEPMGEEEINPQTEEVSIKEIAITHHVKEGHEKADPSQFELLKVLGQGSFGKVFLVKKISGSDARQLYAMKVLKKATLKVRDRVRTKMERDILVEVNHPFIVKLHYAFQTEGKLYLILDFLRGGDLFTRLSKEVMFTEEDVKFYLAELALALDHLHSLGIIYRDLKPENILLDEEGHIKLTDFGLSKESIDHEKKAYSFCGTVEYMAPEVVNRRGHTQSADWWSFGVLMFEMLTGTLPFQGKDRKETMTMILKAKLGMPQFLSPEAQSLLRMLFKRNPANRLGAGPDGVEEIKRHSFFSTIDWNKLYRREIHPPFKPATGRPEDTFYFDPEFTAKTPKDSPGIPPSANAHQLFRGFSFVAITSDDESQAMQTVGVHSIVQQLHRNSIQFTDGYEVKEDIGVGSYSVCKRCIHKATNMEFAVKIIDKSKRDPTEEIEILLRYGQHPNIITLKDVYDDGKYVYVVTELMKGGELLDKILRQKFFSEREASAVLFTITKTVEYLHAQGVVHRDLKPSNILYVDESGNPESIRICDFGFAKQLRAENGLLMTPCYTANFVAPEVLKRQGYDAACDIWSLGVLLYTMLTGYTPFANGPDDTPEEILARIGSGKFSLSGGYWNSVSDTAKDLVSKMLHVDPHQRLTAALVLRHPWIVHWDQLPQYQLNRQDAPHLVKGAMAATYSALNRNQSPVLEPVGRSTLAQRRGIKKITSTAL
Protocol: as §1

p38b MAPK = p38b MAPK (Homo sapiens, UniProt Q15759); experiment: Kinase profiling (radioactive filter binding); details: 1 uM compound
Protocol: as §1

MSK1 = MSK1 (Homo sapiens, UniProt O75582); experiment: Kinase profiling (radioactive filter binding); details: 1 uM compound
Protocol: as §1

MINK1 = MINK1 (Homo sapiens, UniProt Q8N4C8); experiment: Kinase profiling (radioactive filter binding); details: 1 uM compound
Protocol: as §1

Src = Src (Homo sapiens, UniProt P12931); experiment: Kinase profiling (radioactive filter binding); details: 1 uM compound
Protocol: as §1

Lck = Lck (Homo sapiens, UniProt P06239); experiment: Kinase profiling (radioactive filter binding); details: 1 uM compound
Protocol: as §1

DAPK1 = DAPK1 (Homo sapiens, UniProt P53355); experiment: Kinase profiling (radioactive filter binding); details: 1 uM compound
Protocol: as §1

ROCK 2 = ROCK 2 (Rattus norvegicus, UniProt Q62868); experiment: Kinase profiling (radioactive filter binding); details: 1 uM compound
Protocol: as §1

MAP4K5 = MAP4K5 (Homo sapiens, UniProt Q9Y4K4); experiment: Kinase profiling (radioactive filter binding); details: 1 uM compound
Protocol: as §1

OSR1 = OSR1 (Homo sapiens, UniProt O95747); experiment: Kinase profiling (radioactive filter binding); details: 1 uM compound
Protocol: as §1

STK33 = STK33 (Homo sapiens, UniProt Q9BYT3); experiment: Kinase profiling (radioactive filter binding); details: 1 uM compound
Protocol: as §1

ULK1 = ULK1 (Homo sapiens, UniProt O75385); experiment: Kinase profiling (radioactive filter binding); details: 1 uM compound
Sequence of ULK1 (O75385 whole entry): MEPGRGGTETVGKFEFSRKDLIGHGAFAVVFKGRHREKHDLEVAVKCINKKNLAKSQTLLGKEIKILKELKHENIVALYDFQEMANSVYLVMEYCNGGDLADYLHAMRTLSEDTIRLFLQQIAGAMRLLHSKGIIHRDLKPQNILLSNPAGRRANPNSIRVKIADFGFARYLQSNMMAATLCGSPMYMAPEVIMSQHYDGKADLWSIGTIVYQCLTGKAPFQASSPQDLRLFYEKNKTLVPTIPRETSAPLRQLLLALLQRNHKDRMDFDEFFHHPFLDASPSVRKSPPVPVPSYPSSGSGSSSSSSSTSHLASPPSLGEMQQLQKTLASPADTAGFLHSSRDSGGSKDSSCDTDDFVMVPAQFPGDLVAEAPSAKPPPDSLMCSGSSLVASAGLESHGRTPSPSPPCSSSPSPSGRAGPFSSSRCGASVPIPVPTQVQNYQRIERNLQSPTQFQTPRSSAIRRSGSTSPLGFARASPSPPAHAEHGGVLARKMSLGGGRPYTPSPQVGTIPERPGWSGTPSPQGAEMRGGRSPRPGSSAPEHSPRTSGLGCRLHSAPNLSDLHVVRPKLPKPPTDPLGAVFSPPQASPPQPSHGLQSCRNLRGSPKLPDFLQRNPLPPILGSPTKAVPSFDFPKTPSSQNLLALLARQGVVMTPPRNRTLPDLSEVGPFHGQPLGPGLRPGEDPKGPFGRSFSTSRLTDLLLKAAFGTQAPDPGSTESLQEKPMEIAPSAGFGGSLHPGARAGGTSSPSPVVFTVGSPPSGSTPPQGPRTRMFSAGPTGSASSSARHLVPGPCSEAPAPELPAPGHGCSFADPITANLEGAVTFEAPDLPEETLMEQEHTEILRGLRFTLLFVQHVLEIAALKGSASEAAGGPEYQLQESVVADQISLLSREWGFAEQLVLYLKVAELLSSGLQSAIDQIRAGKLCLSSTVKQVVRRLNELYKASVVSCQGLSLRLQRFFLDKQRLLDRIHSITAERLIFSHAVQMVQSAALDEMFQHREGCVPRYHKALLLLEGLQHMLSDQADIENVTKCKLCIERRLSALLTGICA
Protocol: as §1

IRR = IRR (Homo sapiens, UniProt P14616); experiment: Kinase profiling (radioactive filter binding); details: 1 uM compound
Protocol: as §1

TSSK1 = TSSK1 (Homo sapiens, UniProt Q9BXA7); experiment: Kinase profiling (radioactive filter binding); details: 1 uM compound
Protocol: as §1

ERK1 = ERK1 (Homo sapiens, UniProt P27361); experiment: Kinase profiling (radioactive filter binding); details: 1 uM compound
Protocol: as §1

EF2K = EF2K (Homo sapiens, UniProt O00418); experiment: Kinase profiling (radioactive filter binding); details: 1 uM compound
Protocol: as §1

GSK3b = GSK3b (Homo sapiens, UniProt P49841); experiment: Kinase profiling (radioactive filter binding); details: 1 uM compound
Protocol: as §1

VEG-FR = VEG-FR (Homo sapiens, UniProt P17948); experiment: Kinase profiling (radioactive filter binding); details: 1 uM compound
Sequence of VEG-FR (P17948 27-1338): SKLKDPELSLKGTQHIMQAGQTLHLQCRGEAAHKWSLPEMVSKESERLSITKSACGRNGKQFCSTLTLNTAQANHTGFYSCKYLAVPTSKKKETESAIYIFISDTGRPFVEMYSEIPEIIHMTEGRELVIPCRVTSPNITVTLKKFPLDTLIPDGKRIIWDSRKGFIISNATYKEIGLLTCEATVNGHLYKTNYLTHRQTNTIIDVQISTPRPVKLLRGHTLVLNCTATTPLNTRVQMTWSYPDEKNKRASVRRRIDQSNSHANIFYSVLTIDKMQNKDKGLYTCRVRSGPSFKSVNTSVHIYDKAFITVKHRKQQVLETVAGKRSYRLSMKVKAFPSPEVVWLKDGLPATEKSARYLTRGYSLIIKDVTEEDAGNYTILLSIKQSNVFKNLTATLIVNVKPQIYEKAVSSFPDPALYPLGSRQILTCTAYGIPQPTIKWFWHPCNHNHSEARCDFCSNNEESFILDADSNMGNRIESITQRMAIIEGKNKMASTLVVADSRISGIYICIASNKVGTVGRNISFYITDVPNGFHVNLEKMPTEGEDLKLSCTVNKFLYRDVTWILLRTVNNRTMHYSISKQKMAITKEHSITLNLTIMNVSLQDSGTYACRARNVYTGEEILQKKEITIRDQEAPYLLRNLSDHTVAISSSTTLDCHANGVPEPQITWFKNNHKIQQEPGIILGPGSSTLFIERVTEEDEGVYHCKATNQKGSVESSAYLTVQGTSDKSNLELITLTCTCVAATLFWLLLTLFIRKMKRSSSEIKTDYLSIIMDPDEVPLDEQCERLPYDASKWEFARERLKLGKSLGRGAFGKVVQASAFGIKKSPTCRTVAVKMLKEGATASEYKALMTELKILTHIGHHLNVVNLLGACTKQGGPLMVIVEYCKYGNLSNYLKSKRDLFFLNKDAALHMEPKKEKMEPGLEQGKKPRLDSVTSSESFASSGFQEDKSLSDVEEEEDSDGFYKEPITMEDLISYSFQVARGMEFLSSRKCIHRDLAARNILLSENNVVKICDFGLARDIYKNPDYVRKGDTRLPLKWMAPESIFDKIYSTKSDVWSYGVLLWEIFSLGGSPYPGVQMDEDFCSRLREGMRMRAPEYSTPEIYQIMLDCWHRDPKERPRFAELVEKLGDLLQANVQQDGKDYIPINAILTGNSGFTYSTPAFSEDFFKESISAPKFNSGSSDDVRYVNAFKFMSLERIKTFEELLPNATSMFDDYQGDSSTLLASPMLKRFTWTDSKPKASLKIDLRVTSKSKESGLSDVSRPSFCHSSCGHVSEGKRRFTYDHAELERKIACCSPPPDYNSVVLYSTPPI
Protocol: as §1

DDR2 = DDR2 (Homo sapiens, UniProt Q16832); experiment: Kinase profiling (radioactive filter binding); details: 1 uM compound
Protocol: as §1

DYRK2 = DYRK2 (Homo sapiens, UniProt Q92630); experiment: Kinase profiling (radioactive filter binding); details: 1 uM compound
Protocol: as §1

ASK1 = ASK1 (Homo sapiens, UniProt Q99683); experiment: Kinase profiling (radioactive filter binding); details: 1 uM compound
Protocol: as §1

PKCa = PKCa (Homo sapiens, UniProt P17252); experiment: Kinase profiling (radioactive filter binding); details: 1 uM compound
Protocol: as §1

ABL = ABL (Homo sapiens, UniProt P00519); experiment: Kinase profiling (radioactive filter binding); details: 1 uM compound
Protocol: as §1

[1] = molecular target: T1, GST-CLK2cd (CLK2 catalytic domain) (Homo sapiens, UniProt P49760); experiment: High-throughput screen, Kinase-Glo in vitro kinase assay; details: compound at 10 μM; read-out: percentage of inhibition on CLK2 (primary screen)
T1 construct: cDNA encoding the CLK2 catalytic domain (CLK2cd, amino acids 140–496); made in house; host or cells: Escherichia coli BL21(DE3)-R3-lambda-PPase
Protocol: A small molecule inhibitor library consisting of 1600 compounds was obtained from LIFE Chemicals (Kiev, Ukraine). These compounds are part of the CUTE kinase collection that was predicted by in silico profiling against a panel of targets and includes potent kinase inhibitor compounds.[16] Compounds were dissolved as 10 mM stocks in DMSO and stored at room temperature, in the presence of 5% humidity and 5% oxygen in the dark in a Roylan Storage Pod system. Compounds were dispensed into white 384-well plates using the Labcyte Echo520 instrument at a final concentration of 10 μM. Next, 5 μL of 144.92 nM purified GST-CLK2cd in kinase assay buffer A was added to the compounds, incubated for 10 min at room temperature prior to addition of 5 μL of a 2 μM ATP/10 μM S6K peptide mixture, and incubated again for 60 min at room temperature. Subsequently, 10 μL of Kinase-Glo was added to the wells, and the plates were analyzed after 10 min on the Envision II multilabel plate reader (PerkinElmer). […] The percentage of inhibition is equal to 100 – [(total ATP before assay – remaining ATP in assay with compound)/(total ATP before assay – remaining ATP in assay with DMSO) × 100].

CSc1nc2ccc3nc(NC(=O)c4ccco4)sc3c2s1 [5E4, N-[7-(methylsulfanyl)[1,3]thiazolo[4,5-g][1,3]benzothiazol-2-yl]-2-furamide]
p38a MAPK activity in kinase profiling (p38a MAPK): 96
MPSK1 activity in kinase profiling (MPSK1): 114
HIPK3 activity in kinase profiling (HIPK3): 50
PRAK activity in kinase profiling (PRAK): 85
IR activity in kinase profiling (IR): 116
MLK1 activity in kinase profiling (MLK1): 25
CK2 activity in kinase profiling (CK2): 77
TTBK1 activity in kinase profiling (TTBK1): 99
MLK3 activity in kinase profiling (MLK3): 18
PKA activity in kinase profiling (PKA): 97
RSK2 activity in kinase profiling (RSK2): 100
p38b MAPK activity in kinase profiling (p38b MAPK): 98
MSK1 activity in kinase profiling (MSK1): 109
MINK1 activity in kinase profiling (MINK1): 8
Src activity in kinase profiling (Src): 79
Lck activity in kinase profiling (Lck): 101
DAPK1 activity in kinase profiling (DAPK1): 76
ROCK 2 activity in kinase profiling (ROCK 2): 96
MAP4K5 activity in kinase profiling (MAP4K5): 89
OSR1 activity in kinase profiling (OSR1): 111
STK33 activity in kinase profiling (STK33): 110
ULK1 activity in kinase profiling (ULK1): 127
IRR activity in kinase profiling (IRR): 92
TSSK1 activity in kinase profiling (TSSK1): 81
ERK1 activity in kinase profiling (ERK1): 104
EF2K activity in kinase profiling (EF2K): 79
GSK3b activity in kinase profiling (GSK3b): 84
VEG-FR activity in kinase profiling (VEG-FR): 53
DDR2 activity in kinase profiling (DDR2): 95
DYRK2 activity in kinase profiling (DYRK2): 9
ASK1 activity in kinase profiling (ASK1): 84
PKCa activity in kinase profiling (PKCa): 81
ABL activity in kinase profiling (ABL): 61
inhibition at 10 µM [1]: 57%

Cc1nc2ccc3sc(NC(=O)c4ccc5ncsc5c4)nc3c2s1 [3A5, N-(2-methyl[1,3]thiazolo[5,4-e][1,3]benzothiazol-7-yl)-1,3-benzothiazole-6-carboxamide]
p38a MAPK activity in kinase profiling (p38a MAPK): 94
MPSK1 activity in kinase profiling (MPSK1): 150
HIPK3 activity in kinase profiling (HIPK3): 100
PRAK activity in kinase profiling (PRAK): 89
IR activity in kinase profiling (IR): 127
MLK1 activity in kinase profiling (MLK1): 73
CK2 activity in kinase profiling (CK2): 105
TTBK1 activity in kinase profiling (TTBK1): 101
MLK3 activity in kinase profiling (MLK3): 49
PKA activity in kinase profiling (PKA): 98
RSK2 activity in kinase profiling (RSK2): 120
p38b MAPK activity in kinase profiling (p38b MAPK): 100
MSK1 activity in kinase profiling (MSK1): 86
MINK1 activity in kinase profiling (MINK1): 89
Src activity in kinase profiling (Src): 89
Lck activity in kinase profiling (Lck): 116
DAPK1 activity in kinase profiling (DAPK1): 73
ROCK 2 activity in kinase profiling (ROCK 2): 68
MAP4K5 activity in kinase profiling (MAP4K5): 91
OSR1 activity in kinase profiling (OSR1): 101
STK33 activity in kinase profiling (STK33): 88
ULK1 activity in kinase profiling (ULK1): 138
IRR activity in kinase profiling (IRR): 87
TSSK1 activity in kinase profiling (TSSK1): 81
ERK1 activity in kinase profiling (ERK1): 102
EF2K activity in kinase profiling (EF2K): 71
GSK3b activity in kinase profiling (GSK3b): 102
VEG-FR activity in kinase profiling (VEG-FR): 108
DDR2 activity in kinase profiling (DDR2): 88
DYRK2 activity in kinase profiling (DYRK2): 61
ASK1 activity in kinase profiling (ASK1): 59
PKCa activity in kinase profiling (PKCa): 100
ABL activity in kinase profiling (ABL): 102
inhibition at 10 µM [1]: 68%
